In US10501454B2, “Monocyclic β-lactam-siderophore conjugate, and preparation method and use thereof” (Shanghai Institute of Materia Medica, Chinese Academy of …, priority 2016, dated 2019):

How the values were obtained:
[1] = test system: Escherichia coli ECO-14-4 (ESBLs); experiment: In vivo efficacy in mice systemically infected with Escherichia coli ECO-14-4 (ESBLs); details: Kunming mice, intraperitoneal infection, drug s.c. 0.5 h and 4 h after infection, deaths over 7 days, Bliss method
Method: 3.1 Test strains: Clinically isolated pathogenic Escherichia coli ECO-14-4 (ESBLs), supplied by Sichuan Primed Shines Bio-tech Co., Ltd.
3.2 Test animals: Kunming mice, age: 4 to 5 weeks, weight: 18 to 22 g, half male, half female, SPF grade.
3.3 Test methods: Mice were randomly divided into several groups, 5 mice for each group, half male and half female, and 5 doses for each test drug: 1.25, 2.5, 5, 10 and 20 mg/kg. The mice were intraperitoneally injected with 0.5 mL of […] CFU/mL bacterial suspension for each mouse, and subcutaneously injected with the drug at the designed dose 0.5 h and 4 h after infection. The subcutaneous injection volume was 0.2 ml/20 g mouse weight; the number of deaths in mice was observed and recorded for 7 consecutive days. According to the number of deaths in mice, the half effective dose ED50 was calculated according to the Bliss method using the DAS 1.0 software, edited by Sun Ruiyuan et al.

[2] = test system: Klebsiella pneumoniae (4 strains); experiment: MIC, broth microdilution, normal MH medium; type: cell-based; details: multi-drug resistant clinical isolates (KPC2)
Method: (§1) Supplier of the strains: all of the above strains were provided by Sichuan Primed Shines Bio-tech Co., Ltd. A single colony was isolated by streaking on agar plates for each strain prior to the experiment, and the cells freshly cultured at 37° C. overnight were appropriately diluted for the experiment.
(§2) Medium: MH liquid medium (OXOID).
(§3) Culture condition: cells were incubated at 35-37° C. for 16-18 h.
(§4) The broth microdilution method recommended by Clinical and Laboratory Standards Institute (CLSI), Performance Standards for Antimicrobial Susceptibility Testing; Twenty-Third Informational Supplement, M02-All, M07-A9 and M11-A8, 2013 was used to determine the MIC value of each test sample against each test strain in the normal MH medium and iron-deficient MH medium.
(§5) After diluting each sample to different concentrations with normal MH medium, 100 μl of each test sample solution at different concentrations was separately aspirated onto a 96-well sterile polystyrene plate. Drug solutions were added to the 1st to 10th well with the final concentrations of 16, 8, 4, 2, 1, 0.5, 0.25, 0.125, 0.06, and 0.03 mg/L in each well, respectively. The 11th well, as a blank control, was not added with drugs and bacteria. The 12th well, as a bacterial growth control, was added with bacteria but no drug.
The OD600 value was measured by a microplate reader, Minimal Inhibitory Concentration (MIC) of a drug is the lowest concentration of the drug which prevents growth of bacteria in the wells. 1.2.2 MIC in iron-deficient MH medium

[3] = test system: Escherichia coli ATCC 35218; experiment: MIC, broth microdilution, iron-deficient MH medium; type: cell-based; details: iron-deficient MH medium (16 mg/L 2,2'-bipyridine); quality control strain
Method: (§6) Strain for quality control: Escherichia coli ATCC35218, purchased from National Center of Clinical Laboratory.
as §2, §3, §4
(§7) BPL was added to the normal MH medium to obtain a final concentration of 16 mg/L; According to the method in Section 1.2.1, 100 μl of each test sample solution at different concentrations was aspirated to the 1st to 10th well in a 96-well sterile polystyrene plate to obtain the final drug concentrations of 16, 8, 4, 2, 1, 0.5, 0.25, 0.125, 0.06, and 0.03 mg/L, respectively. Then, 100 μl of the test bacterial liquid was added to each well (200 μl per well), and the final concentration of the bacterial liquid was approximately 10^4 CFU/ml. After sealing, it was placed in a 35-37° C. incubator for 18-20 hours for testing the result. The OD600 value was measured by a microplate reader, Minimal Inhibitory Concentration (MIC) of a drug is the lowest concentration of the drug which prevents growth of bacteria in the wells.

[4] = test system: Acinetobacter baumannii (4 strains); experiment: MIC, broth microdilution, iron-deficient MH medium; type: cell-based; details: iron-deficient MH medium (16 mg/L 2,2'-bipyridine); multidrug-resistant clinical isolates (integron I, OXA23)
Method: as §1, §2, §3, §4, §7

[5] = test system: Pseudomonas aeruginosa (4 strains); experiment: MIC, broth microdilution, iron-deficient MH medium; type: cell-based; details: iron-deficient MH medium (16 mg/L 2,2'-bipyridine); multidrug-resistant clinical isolates (integrator I, IMP4)
Method: as §1, §2, §3, §4, §7

[6] = test system: Klebsiella pneumoniae (4 strains); experiment: MIC, broth microdilution, iron-deficient MH medium; type: cell-based; details: iron-deficient MH medium (16 mg/L 2,2'-bipyridine); multi-drug resistant clinical isolates (KPC2)
Method: as §1, §2, §3, §4, §7

[7] = test system: Escherichia coli (4 strains); experiment: MIC, broth microdilution, iron-deficient MH medium; type: cell-based; details: iron-deficient MH medium (16 mg/L 2,2'-bipyridine); clinical isolates (ESBLs)
Method: as §1, §2, §3, §4, §7

[8] = test system: Acinetobacter baumannii (4 strains); experiment: MIC, broth microdilution, normal MH medium; type: cell-based; details: normal MH medium; multidrug-resistant clinical isolates (integron I, OXA23)
Method: as §1, §2, §3, §4, §5
(§8) The test bacterial liquid was adjusted to a bacterial suspension of 0.5 Mcfarland standard with physiological saline, and diluted with MH broth at 1:100, and then added to the drug solution so that a final concentration of the bacterial liquid was approximately 10^4 CFU/ml; 100 μl of the bacterial liquid was further added to each of the above wells (the total volume in each well is 200 μl), which was sealed and placed in a 35-37° C. incubator for 18-20 h for testing the result. The OD600 value was measured by a microplate reader, Minimal Inhibitory Concentration (MIC) of a drug is the lowest concentration of the drug which prevents growth of bacteria in the wells. 1.2.2 MIC in iron-deficient MH medium

[9] = test system: Pseudomonas aeruginosa (4 strains); experiment: MIC, broth microdilution, normal MH medium; type: cell-based; details: multidrug-resistant clinical isolates (integrator I, IMP4)
Method: as §1, §2, §3, §4, §5, §8

[10] = test system: Escherichia coli (4 strains); experiment: MIC, broth microdilution, normal MH medium; type: cell-based; details: clinical isolates (ESBLs)
Method: as §1, §2, §3, §4, §5, §8

[11] = test system: Escherichia coli ATCC 35218; experiment: MIC, broth microdilution, normal MH medium; type: cell-based; details: quality control strain
Method: as §6, §2, §3, §4, §5, §8

## CC1(C)[C@H](NC(=O)/C(=N\OCc2cc(=O)c(O)cn2O)c2csc(N)n2)C(=O)N1OS(=O)(=O)O [BAL30072, reference compound]
[1]
  ED50 Subcutaneous injection: 4.19 mg/kg
[2]
  Antibacterial activity MIC, Klebsiella pneumoniae (4 strains): ≥64 µg/mL
[3]
  Antibacterial activity MIC, Escherichia coli ATCC 35218: 0.06 µg/mL
[4]
  Antibacterial activity MIC, Acinetobacter baumannii (4 strains): 1 to 2 µg/mL
[5]
  Antibacterial activity MIC, Pseudomonas aeruginosa (4 strains): 1 to 2 µg/mL
[6]
  Antibacterial activity MIC, Klebsiella pneumoniae (4 strains): ≥64 µg/mL
[7]
  Antibacterial activity MIC, Escherichia coli (4 strains): 0.25 to 1 µg/mL
[8]
  Antibacterial activity MIC, Acinetobacter baumarmii (4 strains): 2 to 4 µg/mL
[9]
  Antibacterial activity MIC, Pseudomonas aeruginosa (4 strains): 2 µg/mL
[10]
  Antibacterial activity MIC, Escherichia coli (4 strains): 1 µg/mL
[11]
  Antibacterial activity MIC, Escherichia coli ATCC 35218: 0.125 µg/mL
